Measured values: US12540137B2, “N-1 branched alkyl ether substituted imidazo[4,5-c]quinoline compounds, compositions, and methods” (Solventum Intellectual Properties Company, priority 2018, dated 2026)

What was measured:
human TLR7 = target: T1, human TLR7 (Homo sapiens, UniProt Q9NYK1); assay: TLR activation, HEK-BLUE-hTLR7 SEAP reporter cells; assay type: cell-based; details: 16-20 hours, SEAP response at least 2× vehicle control, tested 0.01-30 micromolar
T1 construct: host or cells: HEK293 (HEK-BLUE-hTLR7)
T1 sequence (Q9NYK1 27-1049): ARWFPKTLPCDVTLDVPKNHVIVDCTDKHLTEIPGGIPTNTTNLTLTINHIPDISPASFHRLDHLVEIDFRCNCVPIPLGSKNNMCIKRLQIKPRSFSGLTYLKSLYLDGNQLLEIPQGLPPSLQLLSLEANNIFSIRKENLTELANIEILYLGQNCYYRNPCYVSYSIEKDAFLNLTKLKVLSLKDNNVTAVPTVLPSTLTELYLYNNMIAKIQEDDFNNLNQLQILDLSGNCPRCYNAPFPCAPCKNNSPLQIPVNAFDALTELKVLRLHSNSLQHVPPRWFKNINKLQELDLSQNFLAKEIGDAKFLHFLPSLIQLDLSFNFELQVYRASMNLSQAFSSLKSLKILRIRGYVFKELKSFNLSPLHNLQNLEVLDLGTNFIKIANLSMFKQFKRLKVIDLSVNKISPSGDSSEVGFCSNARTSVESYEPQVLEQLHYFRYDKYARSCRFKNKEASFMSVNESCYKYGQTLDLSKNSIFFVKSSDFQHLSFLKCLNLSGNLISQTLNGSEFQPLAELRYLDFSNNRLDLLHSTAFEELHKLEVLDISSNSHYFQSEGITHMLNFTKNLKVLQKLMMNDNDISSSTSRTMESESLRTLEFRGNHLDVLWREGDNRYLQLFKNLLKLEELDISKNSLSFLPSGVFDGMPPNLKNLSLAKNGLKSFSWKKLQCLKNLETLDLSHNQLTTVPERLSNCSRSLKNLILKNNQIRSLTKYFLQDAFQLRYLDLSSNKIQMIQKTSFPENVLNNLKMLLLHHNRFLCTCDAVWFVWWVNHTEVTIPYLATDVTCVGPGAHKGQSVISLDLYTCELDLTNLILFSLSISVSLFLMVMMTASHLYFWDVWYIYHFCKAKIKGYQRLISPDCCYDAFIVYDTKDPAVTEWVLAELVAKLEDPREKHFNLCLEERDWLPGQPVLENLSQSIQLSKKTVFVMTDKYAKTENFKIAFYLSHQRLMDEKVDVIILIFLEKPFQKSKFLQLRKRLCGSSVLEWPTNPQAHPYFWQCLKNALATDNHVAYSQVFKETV
Protocol: (§1) HEK-BLUE-hTLR7 or hTLR8 reporter cells were obtained from InvivoGen, San Diego, CA. According to the manufacturer's description, these reporter cells were prepared by co-transfection of HEK293 cells with an inducible secreted embryonic alkaline phosphatase (SEAP) reporter gene and either the human TLR7 or TLR8 gene. The SEAP reporter gene was placed under the control of an IFN−β minimal promoter fused to five NF-κB and AP-1-binding sites. In the presence of a TLR ligand, activation of NF-κB and AP-1 occurs, resulting in a corresponding increase in SEAP levels.
(§2) In the assay, the HEK cells were grown and maintained using standard cell culture techniques in a growth medium that contained Dulbecco's Modified Eagle Medium (ThermoFisher Scientific Incorporated, Waltham, MA) supplemented with 1% penicillin/streptomycin and 10% heat-inactivated Gibco fetal bovine serum (ThermoFisher Scientific). Each compound was solubilized in DMSO to create a 3 mM stock solution. The stock solution was then further diluted with the growth medium to prepare serial dilutions. Each test compound was tested at a concentration of 30, 10, 3.3, 1.1, 0.37, 0.12, 0.04, and 0.01 micromolar using a 96-well format with 5×10^4 cells and 200 microliters of growth medium per well.
(§3) For each compound, hTLR7, hTLR8, and their respective null control HEK cells were screened. DMSO serially diluted into the growth medium served as the vehicle control. Cell culture supernatants containing the SEAP reporter were collected after an incubation period of 16-20 hours in a cell culture incubator (37° C. and 5% CO2), and either analyzed immediately or stored at −80° C. SEAP levels were measured using the colorimetric enzyme assay (QUANTI-BLUE (InvivoGen) according to manufacturer's instructions.
(§4) Specifically, the minimum effective concentration of each compound (micromolar) was determined as the lowest concentration of the compound that produced a SEAP expression response at least 2× greater than that observed with the vehicle control wells.

human TLR8 = target: T2, human TLR8 (Homo sapiens, UniProt Q9NR97); assay: TLR activation, HEK-BLUE-hTLR8 SEAP reporter cells; assay type: cell-based; details: 16-20 hours, SEAP response at least 2× vehicle control, tested 0.01-30 micromolar
T2 construct: host or cells: HEK293 (HEK-BLUE-hTLR8)
T2 sequence (Q9NR97 27-1041): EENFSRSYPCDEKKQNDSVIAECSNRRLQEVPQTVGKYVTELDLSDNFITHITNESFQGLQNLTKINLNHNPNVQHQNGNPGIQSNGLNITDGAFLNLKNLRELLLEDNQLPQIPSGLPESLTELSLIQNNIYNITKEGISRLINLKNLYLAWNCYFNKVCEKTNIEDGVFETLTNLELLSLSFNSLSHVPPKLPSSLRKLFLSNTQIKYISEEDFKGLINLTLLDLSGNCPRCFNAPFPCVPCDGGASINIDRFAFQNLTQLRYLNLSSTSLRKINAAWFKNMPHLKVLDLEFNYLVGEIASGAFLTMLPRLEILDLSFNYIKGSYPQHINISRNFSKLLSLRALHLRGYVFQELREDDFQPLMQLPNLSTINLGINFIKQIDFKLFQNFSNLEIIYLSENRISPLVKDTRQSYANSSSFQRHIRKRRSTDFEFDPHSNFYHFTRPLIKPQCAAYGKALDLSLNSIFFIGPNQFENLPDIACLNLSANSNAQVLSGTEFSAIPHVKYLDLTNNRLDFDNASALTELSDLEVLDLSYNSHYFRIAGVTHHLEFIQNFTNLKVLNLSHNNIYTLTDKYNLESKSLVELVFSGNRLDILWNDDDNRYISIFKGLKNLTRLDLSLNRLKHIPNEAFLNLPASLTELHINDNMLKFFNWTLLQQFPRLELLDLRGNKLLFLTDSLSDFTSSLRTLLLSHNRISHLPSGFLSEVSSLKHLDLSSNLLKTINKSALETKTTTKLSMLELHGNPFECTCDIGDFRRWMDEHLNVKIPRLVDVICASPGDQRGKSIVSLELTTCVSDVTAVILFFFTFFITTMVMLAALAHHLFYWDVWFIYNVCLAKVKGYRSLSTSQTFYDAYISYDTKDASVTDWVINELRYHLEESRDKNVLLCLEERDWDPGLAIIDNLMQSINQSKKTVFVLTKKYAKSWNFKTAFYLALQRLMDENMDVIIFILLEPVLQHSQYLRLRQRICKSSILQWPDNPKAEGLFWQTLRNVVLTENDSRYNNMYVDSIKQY
Protocol: as §1, §2, §3, §4

SMILES | MEC to Produce TLR Activation TLR 7 (human TLR7) [µM] | MEC to Produce TLR Activation TLR 8 (human TLR8) [µM]
CCOC[C@H](C(C)C)n1cnc2c(N)nc3ccccc3c21 [Example 1, 1-[(1S)-1-(ethoxymethyl)-2-methyl-propyl]imidazo[4,5-c]quinolin-4-amine] | 0.12 | 30
CCOC[C@H](n1cnc2c(N)nc3ccccc3c21)C(C)(C)C [Example 10, 1-[(1R)-1-(ethoxymethyl)-2,2-dimethyl-propyl]imidazo[4,5-c]quinolin-4-amine] | 30 | >30
CCOC[C@@H](n1c(CC)nc2c(N)nc3ccccc3c21)C(C)(C)O [Example 8, (3R)-3-(4-amino-2-ethyl-imidazo[4,5-c]quinolin-1-yl)-4-ethoxy-2-methyl-butan-2-ol] | 10 | 10
CCO[C@@H](C)[C@@H](n1cnc2c(N)nc3ccccc3c21)C(C)(C)O [Example 13, (3R,4S)-3-(4-aminoimidazo[4,5-c]quinolin-1-yl)-4-ethoxy-2-methyl-pentan-2-ol] | 3.3 | 10
CCOC[C@@H](n1c(C)nc2c(N)nc3ccccc3c21)C(C)(C)O [Example 7, (3R)-3-(4-amino-2-methyl-imidazo[4,5-c]quinolin-1-yl)-4-ethoxy-2-methyl-butan-2-ol] | 0.37 | 1.1
CCOC[C@@H](C(C)C)n1c(C)nc2c(N)nc3ccccc3c21 [Example 4, 1-[(1R)-1-(ethoxymethyl)-2-methyl-propyl]-2-methyl-imidazo[4,5-c]quinolin-4-amine] | >30 | >30
CCOC[C@@H](C(C)C)n1cnc2c(N)nc3ccccc3c21 [Example 2, 1-[(1R)-1-(ethoxymethyl)-2-methyl-propyl]imidazo[4,5-c]quinolin-4-amine] | 3.3 | >30
CCOC[C@@H](n1cnc2c(N)nc3ccccc3c21)C(C)(C)C [Example 9, 1-[(1S)-1-(ethoxymethyl)-2,2-dimethyl-propyl]imidazo[4,5-c]quinolin-4-amine] | ≤0.01 | 30
CCOC[C@H](n1cnc2c(N)nc3ccccc3c21)C(C)(C)O [Example 6, (3S)-3-(4-aminoimidazo[4,5-c]quinolin-1-yl)-4-ethoxy-2-methyl-butan-2-ol] | >30 | >30
COC[C@@H](n1cnc2c(N)nc3ccccc3c21)C(C)(C)C [Example 11, 1-[(1S)-1-(methoxymethyl)-2,2-dimethyl-propyl]imidazo[4,5-c]quinolin-4-amine] | 0.04 | >30
CCOC[C@@H](n1cnc2c(N)nc3ccccc3c21)C(O)(CC)CC [Example 12, (2R)-2-(4-aminoimidazo[4,5-c]quinolin-1-yl)-1-ethoxy-3-ethyl-pentan-3-ol] | 0.04 | 30
CCOC[C@H](C(C)C)n1c(C)nc2c(N)nc3ccccc3c21 [Example 3, 1-[(1S)-1-(ethoxymethyl)-2-methyl-propyl]-2-methyl-imidazo[4,5-c]quinolin-4-amine] | 1.1 | 30
CCOC[C@@H](n1cnc2c(N)nc3ccccc3c21)C(C)(C)O [Example 5, (3R)-3-(4-aminoimidazo[4,5-c]quinolin-1-yl)-4-ethoxy-2-methyl-butan-2-ol] | ≤0.01 | 3.3
